Assays:
[1] = sensitivity to light (UV and sunlight); type: physicochemical
[2] = tested on: 4th instar larvae of Spilarctia Obliqua; test: feeding deterrency (antifeedant) bioassay, diet-mix method, fecal pellet count; type: in vivo; details: for % feeding deterrency: artificial diet, after 24 hours; for antifeedant activity: result in words, bioassay studies
Experimental: (§1) The compound having formula (1) was evaluated as feeding deterrent and growth inhibitor against 4th in star larvae of spilarctia obliqua (Bihar hairy caterpillar). This insect attacks more than twenty cash crops like urd, moong, arhar, mint and coleus etc. Several synthetic insecticides like quinalphos, Phosphamidon and synthetic pyrethroids are commercially used to manage this insect pest. But, the insect is developing resistance towards some of these insecticides. Therefore, it has now become imperative to search for new ecologically safe, environmentally sound and non-toxic chemicals to manage this pest.
(§2) With compound having formula (1) insect feeding deterrency and growth inhibition was tested by diet-mix method. In this method, 4-(p-methoxyphenyl)-2-aminobutane,the compound having formula (1) was dissolved in acetone to make various concentrations ranging from 1000 to 5000 ppm. Test solution was mixed in the artificial diet of the insect so that each gram of diet contained 60-300 µg of the compound (1). 4th in star larva (newly molted) starved four hours, was weighed and released on treated artificial diet in thirty replications. In control, only solvent acetone was mixed and azadirachtin at 1000 ppm concentration was taken as standard for feeding bioassay. After 24 hours, number of fecal pellets produced were counted, and the data were analyzed for % feeding deterrency. Some experiments were continued for next 24 hours and weights of the larva were taken daily. After 3 days, experiment was discontinued and weight gain or loss was analyzed for % growth inhibition.

[3] = tested on: 4th instar larvae of Spilarctia Obliqua; test: growth inhibition assay, diet-mix method, larval weight gain or loss; type: in vivo; details: for growth inhibition: result in words, bioassay studies
Experimental: as §1, §2
Diflubenzuron at 5 ppm was taken as a standard in case of growth inhibitory assay. The test result of compound having formula (1) in terms of its feeding deterrency and growth inhibition as compared to standards azadirachtin and diflubenzuron are given in table 1.

[4] = Spilarctia obliqua, 72 h, read-out: % growth inhibition

Question: Which results are given for C/C=C(\C)C(=O)O[C@H]1C[C@@H](OC(C)=O)[C@@]2(C(=O)OC)CO[C@H]3[C@@H](O)[C@@](C)([C@]45O[C@@]4(C)[C@H]4C[C@@H]5O[C@@H]5OC=C[C@@]54O)[C@H]4[C@]1(CO[C@]4(O)C(=O)OC)[C@@H]32 [Azadirachtin, reference compound]?
Answer: sensitivity to light [1]: photosensitive; % feeding deterrency ([2]; 1000 ppm): 100.0%

Question: Which inhibition at 5 ppm ([3]; Spilarctia obliqua, 72 h, 5 ppm, artificial diet, after 3 days) does the source give for O=C(NC(=O)c1c(F)cccc1F)Nc1ccc(Cl)cc1 [Diflubenzuron, reference compound] here?
Answer: 100%

Question: For COc1ccc(CCC(C)N)cc1 (stereo not drawn) [Compound 1, 4-(p-methoxyphenyl)-2-amino-butane], which sensitivity to light [1] is on record?
Answer: not sensitive to light

Question: And the inhibition at 1000 ppm [3, 4]?
Answer: 48%

Question: What about the inhibition at 2000 ppm [3, 4] of the same molecule?
Answer: 59%

Question: And the inhibition at 3000 ppm [3, 4]?
Answer: 72%

Question: And the inhibition at 4000 ppm [3, 4]?
Answer: 100%

Question: And the inhibition at 5000 ppm [3, 4]?
Answer: 128%

Question: And the growth inhibition [3]?
Answer: significant activity

Question: And the “% feeding deterrency” value ([2]; 1000 ppm)?
Answer: 32.0%

Question: What about the “% feeding deterrency” value ([2]; 2000 ppm) of the same molecule?
Answer: 40.0%

Question: What about the “% feeding deterrency” value ([2]; 3000 ppm) of the same molecule?
Answer: 64.0%

Question: What about the “% feeding deterrency” value ([2]; 4000 ppm) of the same molecule?
Answer: 82.0%

Question: What about the “% feeding deterrency” value ([2]; 5000 ppm) of the same molecule?
Answer: 100.0%

Question: And the antifeedant activity [2]?
Answer: significant activity

Question: Which growth inhibition [3] does the source give for CC(O)CCc1ccc(O)cc1 (stereo not drawn) [compound (2), 4-(p-hydroxyphenyl)-butan-2-ol] here?
Answer: not found to be active

Question: What about the antifeedant activity [2] of the same molecule?
Answer: not found to be active
